The source of these data is publication PMC9506414, “Novel 2,6,9-Trisubstituted Purines as Potent CDK Inhibitors Alleviating Trastuzumab-Resistance of HER2-Positive Breast Cancers” (Pharmaceuticals, 2022).

Data set [1] addresses T1, CLK4 (Homo sapiens, UniProt Q9HAZ1).
T1 construct: purchased Reaction Biology Corp
Also on record: method as in HMS LINCS database. The following applies: 10 μM, ref HMS LINCS database; cited from earlier work.

The test system of data set [2] is CDK3. More on the design: method as in HMS LINCS database. The following applies: 10 μM, ref HMS LINCS database; cited from earlier work.
Data set [3] has as its system ERK8. More on the design: method as in HMS LINCS database. To be noted: 10 μM, ref HMS LINCS database; cited from earlier work.
Data set [4] concerns PFTAIRE2. Also on record: method as in HMS LINCS database. To be noted: 10 μM, ref HMS LINCS database; cited from earlier work.
The subject of data set [5] is PCTK1. Also on record: method as in HMS LINCS database. The following applies: 10 μM, ref HMS LINCS database; cited from earlier work.
Data set [6] relates to CDKL1. More on the design: method as in HMS LINCS database. To be noted: 10 μM, ref HMS LINCS database; cited from earlier work.
Data set [7] has as its target T2, PAK3 (Homo sapiens, UniProt O75914).
T2 construct: purchased Reaction Biology Corp
Also on record: method as in HMS LINCS database. The following applies: 10 μM, ref HMS LINCS database; cited from earlier work.

For data set [8], the target named is T3, TLK2 (Homo sapiens, UniProt Q86UE8).
T3 construct: purchased Reaction Biology Corp
T3 sequence (Q86UE8 whole entry): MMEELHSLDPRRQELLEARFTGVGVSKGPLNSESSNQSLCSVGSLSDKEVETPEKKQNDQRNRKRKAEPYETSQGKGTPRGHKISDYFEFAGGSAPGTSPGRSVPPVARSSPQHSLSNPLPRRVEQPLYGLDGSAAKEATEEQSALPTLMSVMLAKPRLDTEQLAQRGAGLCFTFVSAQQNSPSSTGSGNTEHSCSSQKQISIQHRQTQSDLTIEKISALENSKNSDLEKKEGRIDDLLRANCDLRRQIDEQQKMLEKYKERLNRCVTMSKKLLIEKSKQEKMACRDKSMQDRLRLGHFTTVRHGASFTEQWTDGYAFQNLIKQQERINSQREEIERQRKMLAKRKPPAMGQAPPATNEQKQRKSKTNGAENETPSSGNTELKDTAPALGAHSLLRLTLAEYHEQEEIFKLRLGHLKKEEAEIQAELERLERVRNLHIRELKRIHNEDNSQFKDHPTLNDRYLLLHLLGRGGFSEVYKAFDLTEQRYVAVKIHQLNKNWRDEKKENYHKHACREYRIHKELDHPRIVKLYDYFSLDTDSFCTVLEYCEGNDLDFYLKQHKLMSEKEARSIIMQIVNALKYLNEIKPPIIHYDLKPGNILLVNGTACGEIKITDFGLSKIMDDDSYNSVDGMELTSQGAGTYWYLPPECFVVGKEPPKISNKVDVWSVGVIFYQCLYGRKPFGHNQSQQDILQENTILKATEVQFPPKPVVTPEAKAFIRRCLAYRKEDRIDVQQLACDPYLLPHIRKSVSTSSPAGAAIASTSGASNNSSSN
Also on record: method as in HMS LINCS database. The following applies: 10 μM, ref HMS LINCS database; cited from earlier work.

Data set [9] deals with T4, TAOK3 (Homo sapiens, UniProt Q9H2K8).
T4 construct: purchased Reaction Biology Corp
T4 sequence (Q9H2K8 whole entry): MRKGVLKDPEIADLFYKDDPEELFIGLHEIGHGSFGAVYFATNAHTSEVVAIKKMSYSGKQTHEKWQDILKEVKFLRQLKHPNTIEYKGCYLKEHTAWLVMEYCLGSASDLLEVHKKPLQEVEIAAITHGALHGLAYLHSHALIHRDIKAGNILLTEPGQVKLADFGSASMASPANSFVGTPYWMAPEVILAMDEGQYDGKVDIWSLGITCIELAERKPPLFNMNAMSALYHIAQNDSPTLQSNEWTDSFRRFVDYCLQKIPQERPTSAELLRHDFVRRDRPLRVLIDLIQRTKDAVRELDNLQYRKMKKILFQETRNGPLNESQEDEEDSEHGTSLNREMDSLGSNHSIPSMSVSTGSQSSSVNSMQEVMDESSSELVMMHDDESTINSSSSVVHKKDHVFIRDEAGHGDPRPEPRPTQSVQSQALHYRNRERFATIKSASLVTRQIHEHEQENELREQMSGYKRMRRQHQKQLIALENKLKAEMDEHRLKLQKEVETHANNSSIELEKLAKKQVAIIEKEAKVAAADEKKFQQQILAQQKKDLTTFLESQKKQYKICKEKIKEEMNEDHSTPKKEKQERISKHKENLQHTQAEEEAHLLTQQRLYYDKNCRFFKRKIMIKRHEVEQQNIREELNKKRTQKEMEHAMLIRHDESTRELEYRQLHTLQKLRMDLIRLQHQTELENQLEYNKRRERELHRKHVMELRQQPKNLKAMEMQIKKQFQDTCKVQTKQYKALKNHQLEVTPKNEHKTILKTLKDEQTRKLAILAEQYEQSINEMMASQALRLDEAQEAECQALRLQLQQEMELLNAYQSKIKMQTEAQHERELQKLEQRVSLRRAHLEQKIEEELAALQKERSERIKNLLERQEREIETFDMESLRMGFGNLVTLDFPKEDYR
Also on record: method as in HMS LINCS database. The following applies: 10 μM, ref HMS LINCS database; cited from earlier work.

The target in data set [10] is T5, CYP1A2 (Homo sapiens, UniProt P05177).
T5 sequence (P05177 1-516): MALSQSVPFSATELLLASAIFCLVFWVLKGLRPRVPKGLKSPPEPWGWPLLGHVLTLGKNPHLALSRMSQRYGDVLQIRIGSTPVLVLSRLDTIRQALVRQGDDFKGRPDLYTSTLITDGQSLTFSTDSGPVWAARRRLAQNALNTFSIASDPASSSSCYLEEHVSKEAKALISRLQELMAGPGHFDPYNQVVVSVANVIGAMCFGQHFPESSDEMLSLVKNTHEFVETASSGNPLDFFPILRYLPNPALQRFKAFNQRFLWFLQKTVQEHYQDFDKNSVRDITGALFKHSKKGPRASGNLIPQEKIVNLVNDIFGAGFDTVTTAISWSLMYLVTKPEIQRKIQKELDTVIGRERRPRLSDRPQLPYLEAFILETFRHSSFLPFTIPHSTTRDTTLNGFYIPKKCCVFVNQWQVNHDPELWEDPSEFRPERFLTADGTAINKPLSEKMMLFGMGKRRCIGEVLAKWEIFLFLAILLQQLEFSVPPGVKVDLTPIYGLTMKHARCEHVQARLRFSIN
The data set can be described thus: CYP inhibition. The data set is classed as in vitro ADME. Here is the method:
Table 6 In vitro liver metabolic stability and activity against CYPs of potent analogues. | column: CYP % Activity at 10 μM / 1A2

In data set [11] the target is CYP2C19 (Homo sapiens, UniProt P33261). The data set is described as follows: CYP inhibition. It counts as in vitro ADME. Here is the method: Table 6 In vitro liver metabolic stability and activity against CYPs of potent analogues. | column: CYP % Activity at 10 μM / 2C19
Sequence of CYP2C19 (P33261 whole entry): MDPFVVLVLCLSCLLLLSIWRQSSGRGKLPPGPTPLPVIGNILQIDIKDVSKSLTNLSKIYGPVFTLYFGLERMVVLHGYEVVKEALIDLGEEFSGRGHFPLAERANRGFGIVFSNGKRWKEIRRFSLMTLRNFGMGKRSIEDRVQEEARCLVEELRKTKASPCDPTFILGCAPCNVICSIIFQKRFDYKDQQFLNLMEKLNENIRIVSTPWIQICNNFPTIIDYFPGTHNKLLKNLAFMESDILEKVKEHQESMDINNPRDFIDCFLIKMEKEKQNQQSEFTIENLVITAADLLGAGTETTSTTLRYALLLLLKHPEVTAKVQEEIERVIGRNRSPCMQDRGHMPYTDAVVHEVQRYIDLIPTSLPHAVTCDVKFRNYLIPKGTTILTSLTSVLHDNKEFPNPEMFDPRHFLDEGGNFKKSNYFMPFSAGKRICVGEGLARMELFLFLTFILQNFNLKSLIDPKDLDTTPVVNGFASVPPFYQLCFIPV
Data set [12] relates to WNT1. The data set can be described thus: Western blot of WNT1 in SK-Br3 cells. It counts as cell-based, human. The following applies: 40 and 200 nM, 24 h. From the text: (§1) For Western blot analysis, the following antibodies were used: anti-Pol II CTD (2629S, Cell Signaling Technology, Danvers, MA, USA), anti-Pol II p-CTD (Ser2) (13499S, Cell Signaling Technology), anti-cyclinK (A301-939A-M, Bethyl Laboratories), anti-IRS1 (3407S, Cell Signaling Technology), anti-WNT1 (SC-514531, Santa Cruz Biotechnology, Dallas, TX, USA), anti-β-actin (MAB1501R, Millipore, Burlington, MA, USA), and horseradish peroxidase (HRP)-conjugated secondary antibodies (anti-mouse GTX213112-01; anti-rabbit GTX213110-01) (Genetex, Irvine, CA, USA).
(§2) Cells were lysed with lysis buffer containing 50 mM Tris pH 7.4, 150 mM NaCl, 1 mM EDTA, 1% NP-40, and 0.25% sodium deoxycholate supplemented with protease-inhibitor and phosphatase-inhibitor cocktails. The lysate samples (25 μg/lane) were loaded onto 6–12% sodium dodecyl sulfate polyacrylamide gel and separated by electrophoresis (SDS-PAGE). The proteins were transferred to nitrocellulose membrane (Gelman Sciences, Ann Arbor, MI, USA) by electroblotting. The membranes were blocked with 5% non-fat dry milk (MB Cell, Seoul, Korea), incubated with primary antibodies for overnight at 4 °C. After the washing steps were performed with TBST solution, the membranes were incubated with HRP-conjugated secondary antibodies for 1 h at rt. […]
A general note: Immunoblotting shows a protein as a band on a membrane.

The subject of data set [13] is WNT1. The data set is described as follows: Western blot of WNT1 in HCC1954 cells. The data set is classed as cell-based, human. The following applies: 40 and 200 nM, 24 h.
From the text: as §1, §2

The target of data set [14] is T6, CDK12/CyclinK (Homo sapiens, UniProt Q9NYV4). The data set is described as follows: In vitro CDK12/cyclinK kinase assay. The following applies: Table 5; means and standard deviations from three independent assays; read-out: CDK12/CyclinK (IC50/μM). More on the design: purchased Reaction Biology Corp. (CRO that ran the assay). It counts as biochemical. Here is the method:
(§3) In vitro CDK12/cyclinK assays for all compounds and in vitro kinome-wide inhibition profiling of 30d at 10 μM were performed by a CRO company (Reaction Biology Corp., San Diego, CA, USA).

The target of data set [15] is T6, CDK12/CyclinK. The data set is described as follows: Kinome-wide inhibition profiling. It counts as biochemical. Also on record: purchased Reaction Biology Corp. Here is the method:
as §3

Data set [16] deals with T7, PDPK1 (Homo sapiens, UniProt O15530).
T7 construct: purchased Reaction Biology Corp
The data set can be described thus: Kinome-wide inhibition profiling. The data set is classed as biochemical. Here is the method:
as §3

Data set [17] deals with T8, MKK4 (Homo sapiens, UniProt P45985).
T8 construct: purchased Reaction Biology Corp
The data set is described as follows: Kinome-wide inhibition profiling. The data set is classed as biochemical. Here is the method:
as §3

Data set [18] concerns the target T9, PRKCG (Homo sapiens, UniProt P05129).
T9 construct: purchased Reaction Biology Corp
The data set can be described thus: Kinome-wide inhibition profiling. It counts as biochemical. As to the method: as §3

The target of data set [19] is T10, ERN1 (Homo sapiens, UniProt O75460).
T10 construct: purchased Reaction Biology Corp
The data set is described as follows: Kinome-wide inhibition profiling. The data set is classed as biochemical. Here is the method:
as §3

Data set [20] has as its target T11, MLK1 (Homo sapiens, UniProt P80192).
T11 construct: purchased Reaction Biology Corp
The data set can be described thus: Kinome-wide inhibition profiling. It counts as biochemical. As to the method: as §3

Data set [21] concerns the target T12, TGFBR1 (Homo sapiens, UniProt P36897).
T12 construct: purchased Reaction Biology Corp
The data set can be described thus: Kinome-wide inhibition profiling. It counts as biochemical. As to the method:
as §3

Data set [22] has as its target T13, GRK7 (Homo sapiens, UniProt Q8WTQ7).
T13 construct: purchased Reaction Biology Corp
The data set can be described thus: Kinome-wide inhibition profiling. It counts as biochemical. Here is the method:
as §3

Data set [23] has as its target T14, ACK1 (Homo sapiens, UniProt Q07912).
T14 construct: purchased Reaction Biology Corp
The data set is described as follows: Kinome-wide inhibition profiling. The data set is classed as biochemical. Here is the method:
as §3

Bounds are passed on as bounds.

T6 sequence (Q9NYV4 whole entry): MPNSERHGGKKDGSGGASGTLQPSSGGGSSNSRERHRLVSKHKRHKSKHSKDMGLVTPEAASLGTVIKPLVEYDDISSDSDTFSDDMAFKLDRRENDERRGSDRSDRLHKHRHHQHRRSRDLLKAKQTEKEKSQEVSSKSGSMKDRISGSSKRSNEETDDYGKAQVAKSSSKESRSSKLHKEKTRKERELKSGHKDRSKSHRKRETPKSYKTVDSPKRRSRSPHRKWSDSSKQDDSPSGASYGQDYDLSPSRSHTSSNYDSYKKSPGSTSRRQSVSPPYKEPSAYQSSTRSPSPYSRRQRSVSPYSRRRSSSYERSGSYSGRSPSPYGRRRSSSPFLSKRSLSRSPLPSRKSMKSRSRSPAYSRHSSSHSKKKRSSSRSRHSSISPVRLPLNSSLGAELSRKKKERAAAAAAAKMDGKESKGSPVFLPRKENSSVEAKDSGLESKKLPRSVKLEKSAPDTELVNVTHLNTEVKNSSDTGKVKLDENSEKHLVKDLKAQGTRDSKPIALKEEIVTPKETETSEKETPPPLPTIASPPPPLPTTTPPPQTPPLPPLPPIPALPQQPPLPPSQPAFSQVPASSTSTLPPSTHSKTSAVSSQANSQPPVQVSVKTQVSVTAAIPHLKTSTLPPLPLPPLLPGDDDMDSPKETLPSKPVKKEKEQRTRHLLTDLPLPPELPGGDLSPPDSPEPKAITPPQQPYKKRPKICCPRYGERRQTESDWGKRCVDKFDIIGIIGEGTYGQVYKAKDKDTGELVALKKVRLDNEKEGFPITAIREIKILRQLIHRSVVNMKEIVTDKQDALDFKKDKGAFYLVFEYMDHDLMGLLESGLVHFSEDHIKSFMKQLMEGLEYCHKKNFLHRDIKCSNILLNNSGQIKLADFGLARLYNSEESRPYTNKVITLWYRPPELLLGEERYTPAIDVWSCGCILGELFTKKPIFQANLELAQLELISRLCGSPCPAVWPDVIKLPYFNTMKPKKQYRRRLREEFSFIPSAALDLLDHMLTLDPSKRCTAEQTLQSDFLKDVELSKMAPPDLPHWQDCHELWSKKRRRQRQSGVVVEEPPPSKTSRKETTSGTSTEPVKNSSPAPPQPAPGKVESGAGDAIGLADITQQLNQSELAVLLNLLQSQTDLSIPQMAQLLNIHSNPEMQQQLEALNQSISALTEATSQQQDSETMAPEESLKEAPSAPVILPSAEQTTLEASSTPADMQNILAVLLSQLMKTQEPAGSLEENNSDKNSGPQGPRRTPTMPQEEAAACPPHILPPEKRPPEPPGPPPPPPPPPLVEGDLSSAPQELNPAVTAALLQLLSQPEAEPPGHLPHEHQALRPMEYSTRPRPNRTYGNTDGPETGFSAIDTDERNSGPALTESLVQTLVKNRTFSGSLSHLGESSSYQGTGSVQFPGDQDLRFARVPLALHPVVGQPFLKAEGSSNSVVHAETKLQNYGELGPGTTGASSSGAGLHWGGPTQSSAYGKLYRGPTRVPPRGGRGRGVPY
T6 sequence (O75909 whole entry partner): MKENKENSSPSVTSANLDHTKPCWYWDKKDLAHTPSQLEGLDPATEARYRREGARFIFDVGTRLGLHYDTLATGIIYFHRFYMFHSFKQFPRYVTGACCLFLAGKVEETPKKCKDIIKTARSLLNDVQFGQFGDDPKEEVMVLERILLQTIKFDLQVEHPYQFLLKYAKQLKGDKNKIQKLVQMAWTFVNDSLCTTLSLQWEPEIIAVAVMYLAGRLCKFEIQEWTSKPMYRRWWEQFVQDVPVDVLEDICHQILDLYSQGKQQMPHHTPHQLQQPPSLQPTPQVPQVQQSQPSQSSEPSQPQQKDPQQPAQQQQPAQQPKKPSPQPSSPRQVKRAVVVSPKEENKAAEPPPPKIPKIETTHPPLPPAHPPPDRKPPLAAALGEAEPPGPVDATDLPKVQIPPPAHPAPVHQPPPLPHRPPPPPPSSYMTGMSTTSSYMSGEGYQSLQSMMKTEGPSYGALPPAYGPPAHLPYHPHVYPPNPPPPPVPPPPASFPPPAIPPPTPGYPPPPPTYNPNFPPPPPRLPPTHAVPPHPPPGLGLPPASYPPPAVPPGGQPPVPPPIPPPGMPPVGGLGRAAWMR
T2 sequence (O75914 whole entry): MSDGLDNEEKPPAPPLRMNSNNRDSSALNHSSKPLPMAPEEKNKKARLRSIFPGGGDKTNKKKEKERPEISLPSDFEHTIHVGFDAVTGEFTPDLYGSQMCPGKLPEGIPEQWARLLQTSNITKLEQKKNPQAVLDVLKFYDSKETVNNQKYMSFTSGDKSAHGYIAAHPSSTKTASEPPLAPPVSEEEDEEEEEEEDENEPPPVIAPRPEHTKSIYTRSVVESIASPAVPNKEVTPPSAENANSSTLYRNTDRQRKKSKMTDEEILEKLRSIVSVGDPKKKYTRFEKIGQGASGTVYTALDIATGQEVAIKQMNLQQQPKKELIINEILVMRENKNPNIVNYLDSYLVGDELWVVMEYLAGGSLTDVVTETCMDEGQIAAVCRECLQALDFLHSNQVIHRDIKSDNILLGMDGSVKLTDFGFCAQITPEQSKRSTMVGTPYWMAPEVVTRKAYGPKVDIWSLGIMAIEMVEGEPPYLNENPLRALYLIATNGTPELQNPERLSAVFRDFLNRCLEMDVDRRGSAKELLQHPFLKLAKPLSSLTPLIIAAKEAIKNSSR

On to `CCc1cnn2c(NCc3ccc[n+]([O-])c3)cc(N3CCCC[C@H]3CCO)nc12` [Dinaciclib], for which the “% control” value in data set [1] was 5.1%; in data set [2] it was 0.3%; in data set [3] it was 1.0%; in [4], 0.4%; in data set [5] it was 0.3%; in data set [6] it was 9.1%. For the same compound, the “% control” value in data set [7] is listed as 7.8%; in data set [8], 0.5%; in data set [9], 3.8%.

Regarding `CCn1cnc2c(NCc3ccc(-c4ccccn4)nc3)nc(-c3cnc(N)nc3)nc21` [Compound 30e, N-([2,2′-Bipyridin]-5-ylmethyl)-2-(2-aminopyrimidin-5-yl)-9-ethyl-9H-purin-6-amine], the “CYP % Activity at 10 μM 1A2” value in data set [10] is on record as 87.6%. Also, the “CYP % Activity at 10 μM 2C19” value in [11] is 72.6%. In addition, the “WNT1 expression level (Western blot)” value was “strong suppression of IRS1 and WNT1” in [12]; “strong suppression of IRS1 and WNT1” in data set [13]. Also, the IC50 in data set [14] was found to be 0.085 ± 0.011 µM.

On to `CCn1cnc2c(NCc3ccc(-c4ccccn4)nc3)nc(-c3ccc(N)nc3)nc21` [Compound 30d, N-([2,2′-Bipyridin]-5-ylmethyl)-2-(6-aminopyridin-3-yl)-9-ethyl-9H-purin-6-amine], for which the “CYP % Activity at 10 μM 1A2” value in [10] stood at 74.7%. The inhibition at 10 µM in data set [15] was > 95%. Further, the remaining activity at 10 µM in data set [15] was 1.1%; in data set [16], 105%; in data set [17], 96.4%; in data set [18] it was 49.6%; in data set [19], 50.8%; in data set [20] it was 27.9%. In addition, the results for the remaining activity at 10 µM in data set [21], in [22] and in data set [23] were 112%, 49.7% and 13.7%, respectively. Moreover, the “CYP % Activity at 10 μM 2C19” value in data set [11] is listed as 68.1%. Also, the “WNT1 expression level (Western blot)” value in data set [12] is “strong suppression of IRS1 and WNT1”; in [13], “strong suppression of IRS1 and WNT1”. For the same compound, in data set [14], the IC50 worked out at 0.021 ± 0.007 µM.

Usually inhibition stands for the change of the read-out against control, counted positive when it falls. A word on the remaining activity: it is the signal under treatment as a percentage of the control signal.
